Patent US9340577B2, “HLA binding motifs and peptides and their uses” (priority 1992, dated 2016)
No end group written: not given here.

What was measured:
Assay in all cases: biochemical
Assay type in all cases: binding
A*3301 = A*3301 (Homo sapiens, UniProt P04439, A270S/D185E/E176V/E277Q/E87N/F33T/G231S/H175R/I121M/I218V/I322F/K168Q/K210R/L300P/L318F/M331R/P217A/Q86R/Q94H/R138Q/T323A/T345S/T97I/V358M/Y195H)
A*6801 = A*6801 (Homo sapiens, UniProt P04439, A269V/D185E/E176V/E277Q/E87N/F33Y/G231S/I121M/I166T/I218V/L180W/L300P/L318F/N151K/P208A/P217A/Q86R/R169H/T345S)
HLA-A3.2 (A*0301) = HLA-A3.2 (A*0301) (Homo sapiens, UniProt P04439)
HLA-A11 (A*1101) = HLA-A11 (A*1101) (Homo sapiens, UniProt P04439, A114D/D185E/E176A/F33Y/L180Q/S129P/T187R)
A31 (A*3101) = A31 (A*3101) (Homo sapiens, UniProt P04439, A270S/D185E/E176V/E277Q/F33T/G231S/G80R/H175R/I121M/I218V/I322F/K168Q/L300P/L318F/M331R/P217A/Q94H/R138Q/T323A/T345S/T97I/V358M)

| Compound | IC50 (A*3301) [nM] | IC50 (A*6801) [nM] | IC50 (HLA-A3.2 (A*0301)) [nM] | IC50 (HLA-A11 (A*1101)) [nM] | IC50 (A31 (A*3101)) [nM] |
| --- | --- | --- | --- | --- | --- |
| SSIVGWPAVR [Peptide 9017.0185] | 648 | 14 | 3170 | 22 | 26 |
| ETLNASPYK [Peptide 1589.39] | 4710 | 28 | 163 | 27 | > 20000 |
| ESKKEVESK [Peptide 9017.0083] | > 20000 | 158 | > 20000 | 8040 | > 20000 |
| QSNPYPEPK [Peptide 9017.0070] | > 20000 | 868 | 1040 | 46 | 513 |
| KSFLKGTPKK [Peptide 88.0149] | > 20000 | > 20000 | 48 | 89 | 572 |
| TQQLQDLFK [Peptide 88.0374] | 2000 | 6680 | 1700 | 53 | > 20000 |
| TVQVYFDGNK [Peptide 88.0202] | 15600 | 121 | 1110 | 14 | 4620 |
| SFSELVRPFK [Peptide 1587.03] | 24 | 5340 | 4250 | 551 | 2 |
| TTTYSPALNK [Peptide 1556.41] | > 20000 | 18 | 102 | 2.5 | > 20000 |
| LQLALEALNK [Peptide 88.0227] | > 20000 | > 20000 | 1100 | 21 | 3630 |
| FLGAFKKFLK [Peptide 88.0169] |  | 275 | 3.3 | 9.6 | 11 |
| ITVSAELPR [Peptide 1556.18] | 8710 | 25 | > 20000 | 739 | 6930 |
| FTAFLGAFKK [Peptide 88.0168] |  | 20 | 1900 | 25 | > 20000 |
| VFCGPANTGK [Peptide 88.0150] | 811 | 3000 | 1950 | 1660 | 485 |
| RTLTLLSVTK [Peptide 1556.13] | 6760 | 219 | 23 | 15 |  |
| ALTALIKPK [Peptide 9017.0098] | > 20000 | 6020 | 24 | 19 |  |
| GVIVMMLIR [Peptide 88.0376] | 214 | 2770 | 2380 | 434 |  |
| CFYSPALNK [Peptide 1556.43] | 122 | 1450 | 127 | 74 |  |
| RILSTYLGR [Peptide 9017.0072] |  | 457 | 7.5 | 7.2 | 1.6 |
| VTYHSETQR [Peptide 1589.10] |  | 32 | 29 | 22 | 66 |
| QVLHLLKRK [Peptide 88.0365] | 1850 | 801 | 1550 | 320 |  |

| Compound | IC50 (A*3301) [nM] | IC50 (A*6801) [nM] | IC50 (HLA-A3.2 (A*0301)) [nM] | IC50 (HLA-A11 (A*1101)) [nM] | IC50 (A31 (A*3101)) [nM] |
| --- | --- | --- | --- | --- | --- |
| VTVYDGVPVWR [Peptide 1525.08] | 5720 | 59 | 7840 | 246 |  |
| SQWIRFRCSK [Peptide 88.0147] |  | 11800 | 415 | 130 | 373 |
| IQIKRRQQK [Peptide 9012.0207] | > 20000 | > 20000 | 29 | 20 |  |
| IVGWPAVRER [Peptide 9017.0186] |  | 81 | 630 | 1170 | 110 |
| LTALITPKK [Peptide 9017.0101] |  | 6.5 | 41 | 4.2 | 4500 |
| QLVTQLMPK [Peptide 9012.0211] |  | 2260 | 88 | 79 | > 20000 |
| ETNEALELK [Peptide 1556.68] |  | 1440 | 16800 | 93 | > 20000 |
| AQVLHVLKRK [Peptide 88.0141] | > 20000 | 15800 | 161 | 104 |  |
| STAAALYWYK [Peptide 1587.06] |  | 5.9 | 4.5 | 1.6 |  |
| LVKMFCQLAK [Peptide 1556.50] |  | 221 | 1200 | 189 | 3340 |
| LNKMFCQLAR [Peptide 1556.49] |  | 1800 | 11100 | 8880 |  |
| ALKGLAQSK [Peptide 88.0416] | > 20000 | > 20000 | 65 | 1660 |  |
| SLYGKTLEER [Peptide 78.0142] | 5500 | 178 | 56 | 1730 |  |
| AAFDLSFFLK [Peptide 9017.0189] |  | 1.9 | 9 | 2.3 | 130 |
| LLLIRFRCSK [Peptide 88.0164] | > 20000 | 732 | 205 | 6980 |  |
| QQMNMCQWIK [Peptide 88.0186] | 13100 | 197 | 346 | 20 |  |
| GVSIEWRLRR [Peptide 9017.0220] |  | 4420 | 7780 | 468 | 189 |
| AFNSSHKGR [Peptide 88.0394] |  | > 20000 | > 20000 | > 20000 | 55 |
| WTIVYIEYRK [Peptide 9017.0243] |  | 0.94 | 4890 | 37 | 1350 |
| GVEFISFLR [Peptide 1587.55] |  | 48 | > 20000 | 440 | 124 |
| DSNACAFLK [Peptide 1587.33] | 39 | 68 | 1420 | 303 |  |

| Compound | IC50 (A*3301) [nM] | IC50 (A*6801) [nM] | IC50 (HLA-A3.2 (A*0301)) [nM] | IC50 (HLA-A11 (A*1101)) [nM] | IC50 (A31 (A*3101)) [nM] |
| --- | --- | --- | --- | --- | --- |
| KIDRLIDRIR [Peptide 9017.0249] | > 20000 | > 20000 | > 20000 | > 20000 |  |
| MVIEPPKLR [Peptide 88.0360] |  | 13 | > 20000 | 271 | 729 |
| RVHSSHLK [Peptide 1556.72] |  | 1630 | 144 | 13 | 483 |
| KAILGQVVR [Peptide 9017.0092] | > 20000 | 159 | 15500 | 5340 |  |
| TLDVYMIMVK [Peptide 9012.0258] | > 20000 | 2030 | 1560 | 17 |  |
| RTHSSHLKSKK [Peptide 1556.76] | 10700 | 1360 | 59 | 9.8 |  |
| MLIRYTCGK [Peptide 88.0377] |  | 15 | 34 | 14 | 1220 |
| ATLQDIVLH [Peptide 78.0278] | > 20000 | > 20000 | 4510 | 152 |  |
| NTMDYTNWK [Peptide 88.0425] |  | 13 | 1600 | 19 | > 20000 |
| LQQLLFIHFR [Peptide 9017.0241] |  | 81 | 2490 | 58 | 1.3 |
| GVMCRHYKR [Peptide 88.0388] |  | 93 | 2890 | 80 | 37 |
| CC[C@H](C)[C@H](N)C(=O)N[C@@H](CO)C(=O)N[C@@H](Cc1ccccc1)C(=O)N[C@@H](C)C(=O)NCC(=O)N[C@H](C(=O)N[C@H](C(=O)N[C@H](C(=O)N[C@@H](CCCCN)C(=O)O)[C@@H](C)O)C(C)C)[C@@H](C)CC [Peptide 1589.17] | 4370 | 31 | 33 | 9.5 |  |
| ITVYYGVPVWR [Peptide 1525.06] |  | 5.4 | 831 | 76 | 13 |
| CTELKLVYR [Peptide 78.0334] |  | 1330 | > 20000 | > 20000 | 64 |
| IVFIEYRKIR [Peptide 9017.0245] | 312 |  | 4370 | 1470 | 12 |
| KTLEERVKK [Peptide 78.0294] | > 20000 | > 20000 | 302 | 160 |  |
| ALTALITPKK [Peptide 9017.0230] | > 20000 |  | 44 | 6.8 | 7410 |
| FTAFLGAFK [Peptide 88.0362] | 71 | 5.4 | 31 | 3.8 |  |
| VSYWGVYYIK [Peptide 1589.25] | 11500 | 24 | 109 | 3 |  |
| STWHWTSDNK [Peptide 1589.22] | > 20000 | 18 | 161 | 17 |  |
